Changes are numbered by the printed parent chain. Read-outs that look alike come from different tables or passages of the source.
Legend:
[1] = target: T1, hAR (human androgen receptor) (Homo sapiens, UniProt P10275); test: Competitive binding analysis on hAR extracts with 3H-DHT tracer
T1 construct: made in house; host or cells: baculovirus/Sf9 insect cells
T1 sequence (P10275 1-920): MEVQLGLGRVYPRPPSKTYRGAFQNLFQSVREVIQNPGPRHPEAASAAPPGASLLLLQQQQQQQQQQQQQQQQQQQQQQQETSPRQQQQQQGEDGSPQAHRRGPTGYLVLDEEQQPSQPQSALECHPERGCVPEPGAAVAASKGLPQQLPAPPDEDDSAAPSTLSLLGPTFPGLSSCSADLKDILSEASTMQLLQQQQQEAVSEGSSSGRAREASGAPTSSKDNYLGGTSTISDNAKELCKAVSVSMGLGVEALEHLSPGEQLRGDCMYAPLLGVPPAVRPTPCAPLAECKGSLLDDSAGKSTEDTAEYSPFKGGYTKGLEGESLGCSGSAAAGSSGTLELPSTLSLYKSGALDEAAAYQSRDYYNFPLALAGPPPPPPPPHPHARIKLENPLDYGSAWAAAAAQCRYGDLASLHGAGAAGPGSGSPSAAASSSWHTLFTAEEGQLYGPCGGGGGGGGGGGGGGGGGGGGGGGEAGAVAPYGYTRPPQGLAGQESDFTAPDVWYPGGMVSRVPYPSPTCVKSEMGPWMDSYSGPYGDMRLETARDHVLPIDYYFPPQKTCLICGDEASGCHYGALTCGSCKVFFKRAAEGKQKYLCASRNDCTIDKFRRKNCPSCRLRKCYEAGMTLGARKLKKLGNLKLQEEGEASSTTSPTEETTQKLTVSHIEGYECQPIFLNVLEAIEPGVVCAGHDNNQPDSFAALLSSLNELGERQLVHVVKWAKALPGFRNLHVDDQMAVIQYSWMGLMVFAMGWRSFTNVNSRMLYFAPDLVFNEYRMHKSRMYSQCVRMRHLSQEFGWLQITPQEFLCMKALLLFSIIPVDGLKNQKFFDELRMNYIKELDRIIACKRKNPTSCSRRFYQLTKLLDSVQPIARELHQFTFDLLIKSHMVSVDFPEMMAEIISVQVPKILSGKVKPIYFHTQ
Description: The description below describes how the assay was carried out.
Competitive binding analysis was performed on baculovirus/Sf9 generated hAR extracts in the presence or absence of different concentrations of test agent and a fixed concentration of ^3H-dihydrotestosterone (^3H-DHT) as tracer. This binding assay method is a modification of a protocol previously described (Liao S., et. al. J. Steroid Biochem. 20:11-17 1984). Briefly, progressively decreasing concentrations of compounds are incubated in the presence of hAR extract (Chang et al. P.N.A.S. Vol. 89, pp. […], 1992), hydroxylapatite, and 1 nM^3 H-DHT for one hour at 4° C. Subsequently, the binding reactions are washed three times to completely remove excess unbound ^3H-DHT. hAR bound ^3H-DHT levels are determined in the presence of compounds (=i.e competitive binding) and compared to levels bound when no competitor is present (=i.e. maximum binding). Compound binding affinity to the hAR is expressed as the concentration of compound at which one half of the maximum binding is inhibited.

[2] = target: T2, androgen receptor (Homo sapiens, UniProt P10275, Q868H); test: AR antagonist cell assay (MDA-MB453-MMTV luciferase reporter, 100 pM DHT); format: cell-based
T2 construct: a human breast tumor cell line expressing androgen receptor; endogenous in cells; host or cells: MDA-MB453-MMTV clone 54-19 (MDA-MB-453 stably transfected with the MMTV-luciferase reporter only)
T2 sequence (P10275 1-920 Q868H): T1 sequence (P10275 1-920) with Q868H
Description: The compounds ability to antagonize the effects of androgen on the androgen receptor were determined in a whole cell assay as described immediately below.
Experimental Procedure for AR Antagonist Cell Assay
This cell line is a stable transfected cell line with MDA-MB453 cell background (a human breast tumor cell line expressing androgen receptor). A MMTV minimal promoter containing ARE was first cloned in front of a firefly luciferase reporter gene. Then the cascade was cloned into transfection vector pUV120puro. […] Puromycin resistant stable cell line was selected.
Cell Culture Media and Reagents:
Plating medium: DMEM (phenol red free), 10% charcoal treated HyClone serum, 1% L-glutamine
Assay medium: DMEM (phenol red free), 1% charcoal treated HyClone serum, 1% L-glutamine, and 1% penicillin/streptomycin
• 1. Cells are maintained in culture medium, splitting cells when they reach 80-90% confluence • 2. To test compounds, 10,000 cells/well are plated to opaque 96 cell culture plate in 100 uvwell plating medium, culture for overnight at 37° C. in cell culture incubator • 3. […] Add 10 ul/well freshly prepared DHT (final concentration at 100 pM) to each well, incubate at 37° C. for 17 hr (overnight) • 5.
The results are reported as the mean of multiple tests as described below (the numbers of tests are indicated in the footnote). N.D. denotes that the compound was not tested.

[3] = test system: Male C3H/HeN mice; test: Modified telogen conversion assay; format: in vivo; details: 3% w/v in propylene glycol (30%)/ethanol (70%), topical, twice daily for 4 weeks
Excerpt: The telogen conversion assay measures the potential of a compound to convert mice in the resting stage of the hair growth cycle (“telogen”) to the active stage of the hair growth cycle (“anagen”). This assay takes advantage of the fact that the fur (i.e. hair) of 7 week old C3H/HeN mice is in the telogen phase. This phase continues until about 75 days of age. In this assay, selected areas of the mice are shaved, contacted with a test agent, or a control, and the difference in the rate of hair growth is measured (i.e. induction of the anagen phase). The first sign of anagen is the darkening of skin color as melanocytes in the follicles start to synthesize melanin, in preparation for the production of pigmented hairs. This model has a number of advantages. This includes the ready availability of female CH3HeN mice, the ability to screen large numbers of compounds quickly, and the ease of housing and handling such animals.
It has been discovered that male C3H/HeN mice may be used in the telogen conversion assay, when evaluating anti-androgen test compounds. Thus, the model relates to a modification of the existing telogen conversion assay. […]
The treatment area was observed and graded every other day for signs of hair growth. The hair growth response was quantified by recording, for each animal, the day on which signs of hair growth first appeared over the treated area. […]

[4] = after 7 years of treatment; cited from earlier work
[5] = baculovirus/Sf9 generated hAR extract, 1 nM 3H-DHT, one hour at 4° C., mean of repeated tests, read-out: AR Binding IC50
[6] = MDA-MB453-MMTV clone 54-19, 100 pM DHT, 17 hr, mean of multiple tests, read-out: AR Cell IC50

Molecule | IC50 [1, 5] [nM] | IC50 [2, 6] [nM] | IC50 [1] [nM] | other results
2-Chloro-6-(methyl-propyl-amino)-4-trifluoromethyl-nicotinonitrile [Example 12] | 88 | 587 |  | 
C[C@H](c1ccccc1)N(C)c1cc(C(F)(F)F)c(C#N)cn1 (hydrate or solvate) [Example 1, (R)-(+)-6-[Methyl-(1-Phenyl-ethyl)-amino]-4-trifluoromethyl-nicotinonitrile] |  |  |  | melting point: 47.2 to 47.7 °C
C[C@H](c1ccccc1)N(C)c1cc(C(F)(F)F)c(C#N)cn1 [Example 1, (R)-(+)-6-[Methyl-(1-Phenyl-ethyl)-amino]-4-trifluoromethyl-nicotinonitrile] |  |  | 20 | IC50 [2]: 45 nM; hair growth (induction of anagen) [3]: produced substantial hair growth
CC(c1ccccc1)N(C)c1cc(C(F)(F)F)c(C#N)cn1 (centres unmarked) [Example 2, 6-[Methyl-(1-Phenyl-ethyl)-amino]-4-trifluoromethyl-nicotinonitrile] |  |  | 123 | IC50 [2]: 229 nM
CCCN(CCC)c1cc(C(F)(F)F)c(C#N)cn1 [Example 3, 6-Dipropylamino-4-trifluoromethyl-nicotinonitrile] |  | > 1000 | 22 | 
CCC(C)N(C)c1cc(C(F)(F)F)c(C#N)cn1 (centres unmarked) [Example 4, 6-(sec-Butyl-methyl-amino)-4-trifluoromethyl-nicotinonitrile] |  | > 1000 | 10 | 
CCCCN(CCO)c1cc(C(F)(F)F)c(C#N)cn1 [Example 5, 6-[Butyl-(2-hydroxy-ethyl)-amino]-4-trifluoromethyl-nicotinonitrile] | 548 |  |  | 
CN(Cc1ccccc1)c1cc(C(F)(F)F)c(C#N)cn1 [Example 7, 6-(Benzyl-methyl-amino)-4-trifluoromethyl-nicotinonitrile] | 538 |  |  | 
CCCN(c1cc(C(F)(F)F)c(C#N)cn1)C1CCCCC1 [Example 8, 6-(Cyclohexyl-propyl-amino)-4-trifluoromethyl-nicotinonitrile] | 425 |  |  | 
CCC(C)N(C)c1cc(C(F)(F)F)c(C#N)c(Cl)n1 (centres unmarked) [Example 10] |  | > 1000 | 0.5 | 
CCCN(CCC)c1cc(C(F)(F)F)c(C#N)c(Cl)n1 [Example 11, 6-Dipropylamino-2-chloro-4-rtifluoromethyl-nicotinonitrile] |  | > 1000 | 8.2 | 
NCCCC(O)(P(=O)(O)O)P(=O)(O)O [alendronate] |  |  |  | increase in spinal BMD [4]: ≤ 11%
